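Briefly, cells in 96-well plates were exposed to five compound concentrations for 48 h, and endpoints were estimated by linear interpolation. GI50 is the concentration that inhibits growth by half. The concentration for full growth arrest is given as TGI.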
Tests used:
Test in all cases: DTP human tumour cell line panel, 48 h
NCI/ADR-RES ovarian = system: NCI/ADR-RES ovarian
MCF7 breast = system: MCF7 breast
SK-MEL-28 melanoma = system: SK-MEL-28 melanoma
SNB-19 CNS = system: SNB-19 CNS
SN12C renal = system: SN12C renal
EKVX NSCLC = system: EKVX NSCLC
HT29 colon = system: HT29 colon
NCI-H23 lung = system: NCI-H23 lung
CCRF-CEM leukemia = system: CCRF-CEM leukemia
MDA-MB-435 = system: MDA-MB-435
MALME-3M melanoma = system: MALME-3M melanoma
UACC-257 melanoma = system: UACC-257 melanoma
ACHN renal = system: ACHN renal
SNB-75 CNS = system: SNB-75 CNS
NCI-H522 lung = system: NCI-H522 lung
OVCAR-3 ovarian = system: OVCAR-3 ovarian
TK-10 renal = system: TK-10 renal
A549 NSCLC = system: A549 NSCLC
OVCAR-4 ovarian = system: OVCAR-4 ovarian
HOP-62 NSCLC = system: HOP-62 NSCLC
CAKI-1 renal = system: CAKI-1 renal
SF-295 CNS = system: SF-295 CNS
HL-60(TB) leukemia = system: HL-60(TB) leukemia
LOX IMVI melanoma = system: LOX IMVI melanoma
OVCAR-8 ovarian = system: OVCAR-8 ovarian
786-0 renal = system: 786-0 renal
SW-620 colon = system: SW-620 colon
SF-268 CNS = system: SF-268 CNS
KM12 colon = system: KM12 colon
K-562 leukemia = system: K-562 leukemia
DU-145 prostate = system: DU-145 prostate
SR leukemia = system: SR leukemia
M14 melanoma = system: M14 melanoma
NCI-H460 lung = system: NCI-H460 lung
U251 CNS = system: U251 CNS
SK-MEL-5 melanoma = system: SK-MEL-5 melanoma
SK-MEL-2 melanoma = system: SK-MEL-2 melanoma
HCT-15 colon = system: HCT-15 colon
SF-539 CNS = system: SF-539 CNS
HCT-116 colon = system: HCT-116 colon
COLO 205 colon = system: COLO 205 colon
PC-3 prostate = system: PC-3 prostate
RPMI-8226 leukemia = system: RPMI-8226 leukemia
HOP-92 NSCLC = system: HOP-92 NSCLC
MDA-MB-231 breast = system: MDA-MB-231 breast
OVCAR-5 ovarian = system: OVCAR-5 ovarian
IGROV1 ovarian = system: IGROV1 ovarian
MOLT-4 leukemia = system: MOLT-4 leukemia
BT-549 breast = system: BT-549 breast
NCI-H226 lung = system: NCI-H226 lung
UO-31 renal = system: UO-31 renal
HS 578T breast = system: HS 578T breast
A498 renal = system: A498 renal
RXF 393 renal = system: RXF 393 renal
SK-OV-3 ovarian = system: SK-OV-3 ovarian
UACC-62 melanoma = system: UACC-62 melanoma
HCC-2998 colon = system: HCC-2998 colon
T-47D breast = system: T-47D breast

O=C1C2=Cc3ccccc3CCN2c2ccccc21
TGI (NCI/ADR-RES ovarian): > 77.9 µM
TGI (MCF7 breast): > 61 µM
TGI (SK-MEL-28 melanoma): > 82.3 µM
TGI (SNB-19 CNS): > 100 µM
TGI (SN12C renal): > 31.6 µM
TGI (EKVX NSCLC): > 94.5 µM
TGI (HT29 colon): 23 µM
TGI (NCI-H23 lung): > 100 µM
TGI (CCRF-CEM leukemia): 26.1 µM
TGI (MDA-MB-435): > 56.3 µM
TGI (MALME-3M melanoma): > 76.7 µM
TGI (UACC-257 melanoma): > 79.9 µM
TGI (ACHN renal): > 31.6 µM
TGI (SNB-75 CNS): > 100 µM
TGI (NCI-H522 lung): > 82.7 µM
TGI (OVCAR-3 ovarian): > 100 µM
TGI (TK-10 renal): > 100 µM
TGI (A549 NSCLC): > 100 µM
TGI (OVCAR-4 ovarian): > 100 µM
TGI (HOP-62 NSCLC): > 100 µM
TGI (CAKI-1 renal): 30.4 µM
TGI (SF-295 CNS): 98.3 µM
TGI (HL-60(TB) leukemia): 72.4 µM
TGI (LOX IMVI melanoma): 38.7 µM
TGI (OVCAR-8 ovarian): > 100 µM
TGI (786-0 renal): > 31.6 µM
TGI (SW-620 colon): > 31.6 µM
TGI (SF-268 CNS): > 74.2 µM
TGI (KM12 colon): > 62 µM
TGI (K-562 leukemia): 20.5 µM
TGI (DU-145 prostate): > 100 µM
TGI (SR leukemia): 29.5 µM
TGI (M14 melanoma): 26.8 µM
TGI (NCI-H460 lung): 60.2 µM
TGI (U251 CNS): > 31.6 µM
TGI (SK-MEL-5 melanoma): 34.1 µM
TGI (SK-MEL-2 melanoma): 67.9 µM
TGI (HCT-15 colon): > 79.5 µM
TGI (SF-539 CNS): 27.2 µM
TGI (HCT-116 colon): > 70.4 µM
TGI (COLO 205 colon): > 56 µM
TGI (PC-3 prostate): > 62.7 µM
TGI (RPMI-8226 leukemia): 23.3 µM
TGI (HOP-92 NSCLC): > 92.3 µM
TGI (MDA-MB-231 breast): > 59.4 µM
TGI (OVCAR-5 ovarian): > 100 µM
TGI (IGROV1 ovarian): > 100 µM
TGI (MOLT-4 leukemia): 48 µM
TGI (BT-549 breast): 33 µM
TGI (NCI-H226 lung): 22 µM
TGI (UO-31 renal): > 100 µM
TGI (HS 578T breast): > 100 µM
TGI (A498 renal): 25.9 µM

Cc1cn2c(/C=C3/C(=O)N(C)c4ccccc43)c(C)nc2s1
GI50 (NCI/ADR-RES ovarian): 3.4 µM
TGI (NCI/ADR-RES ovarian): 41 µM
GI50 (MCF7 breast): 1.02 µM
TGI (MCF7 breast): 13.3 µM
GI50 (SK-MEL-28 melanoma): 14.2 µM
TGI (SK-MEL-28 melanoma): 53.4 µM
GI50 (SNB-19 CNS): 5.51 µM
TGI (SNB-19 CNS): 27.7 µM
GI50 (SN12C renal): 25.5 µM
TGI (SN12C renal): > 100 µM
GI50 (EKVX NSCLC): 15.8 µM
TGI (EKVX NSCLC): > 100 µM
GI50 (HT29 colon): 3.58 µM
TGI (HT29 colon): > 100 µM
GI50 (NCI-H23 lung): 16.2 µM
TGI (NCI-H23 lung): > 100 µM
GI50 (CCRF-CEM leukemia): 14.5 µM
TGI (CCRF-CEM leukemia): > 100 µM
GI50 (RXF 393 renal): 53.8 µM
TGI (RXF 393 renal): > 100 µM
GI50 (MALME-3M melanoma): 54.3 µM
TGI (MALME-3M melanoma): > 100 µM
GI50 (UACC-257 melanoma): 67.8 µM
TGI (UACC-257 melanoma): > 100 µM
GI50 (ACHN renal): 25.9 µM
TGI (ACHN renal): > 100 µM
GI50 (SNB-75 CNS): 4.69 µM
TGI (SNB-75 CNS): 23.4 µM
GI50 (SK-OV-3 ovarian): 6.87 µM
TGI (SK-OV-3 ovarian): 31.9 µM
GI50 (NCI-H522 lung): 5.04 µM
TGI (NCI-H522 lung): 30.2 µM
GI50 (TK-10 renal): 21.5 µM
TGI (TK-10 renal): > 100 µM
GI50 (A549 NSCLC): 12.8 µM
TGI (A549 NSCLC): > 100 µM
GI50 (OVCAR-4 ovarian): 21.9 µM
TGI (OVCAR-4 ovarian): > 100 µM
GI50 (HOP-62 NSCLC): 30 µM
TGI (HOP-62 NSCLC): > 100 µM
GI50 (UACC-62 melanoma): 12.2 µM
TGI (UACC-62 melanoma): 97.9 µM
GI50 (HL-60(TB) leukemia): 2.42 µM
TGI (HL-60(TB) leukemia): 6.19 µM
GI50 (LOX IMVI melanoma): 11.6 µM
TGI (LOX IMVI melanoma): > 100 µM
GI50 (OVCAR-8 ovarian): 29.2 µM
TGI (OVCAR-8 ovarian): > 100 µM
GI50 (786-0 renal): 20.1 µM
TGI (786-0 renal): > 100 µM
GI50 (SW-620 colon): 4.3 µM
TGI (SW-620 colon): > 100 µM
GI50 (SF-268 CNS): 22.1 µM
TGI (SF-268 CNS): > 100 µM
GI50 (KM12 colon): 3.38 µM
TGI (KM12 colon): > 100 µM
GI50 (HCC-2998 colon): 7.97 µM
TGI (HCC-2998 colon): 33.5 µM
GI50 (K-562 leukemia): 2.23 µM
TGI (K-562 leukemia): 7.15 µM
GI50 (DU-145 prostate): 27.4 µM
TGI (DU-145 prostate): > 100 µM
GI50 (SR leukemia): 2.48 µM
TGI (SR leukemia): 7.37 µM
GI50 (M14 melanoma): 5.31 µM
TGI (M14 melanoma): > 100 µM
GI50 (T-47D breast): 4.49 µM
TGI (T-47D breast): > 100 µM
GI50 (NCI-H460 lung): 4.06 µM
TGI (NCI-H460 lung): 29.6 µM
GI50 (U251 CNS): 8.08 µM
TGI (U251 CNS): > 100 µM
GI50 (SK-MEL-5 melanoma): 4.71 µM
TGI (SK-MEL-5 melanoma): 25.5 µM
GI50 (SK-MEL-2 melanoma): 5.33 µM
TGI (SK-MEL-2 melanoma): 58.3 µM
GI50 (HCT-15 colon): 5.25 µM
TGI (HCT-15 colon): > 100 µM
GI50 (SF-539 CNS): 10.7 µM
TGI (SF-539 CNS): 52.9 µM
GI50 (HCT-116 colon): 5.02 µM
TGI (HCT-116 colon): > 100 µM
GI50 (COLO 205 colon): 3.93 µM
TGI (COLO 205 colon): 21 µM
GI50 (PC-3 prostate): 16.5 µM
TGI (PC-3 prostate): > 100 µM
GI50 (RPMI-8226 leukemia): 17 µM
TGI (RPMI-8226 leukemia): > 100 µM
GI50 (HOP-92 NSCLC): 31.9 µM
TGI (HOP-92 NSCLC): > 100 µM
GI50 (MDA-MB-231 breast): 18.1 µM
TGI (MDA-MB-231 breast): > 100 µM
GI50 (OVCAR-5 ovarian): 28.6 µM
TGI (OVCAR-5 ovarian): > 100 µM
GI50 (IGROV1 ovarian): 6.98 µM
TGI (IGROV1 ovarian): 70.3 µM
GI50 (MOLT-4 leukemia): 4.84 µM
TGI (MOLT-4 leukemia): 26.8 µM
GI50 (BT-549 breast): 10.8 µM
TGI (BT-549 breast): > 100 µM
GI50 (NCI-H226 lung): 40.5 µM
TGI (NCI-H226 lung): > 100 µM
GI50 (UO-31 renal): 17.2 µM
TGI (UO-31 renal): > 100 µM
GI50 (HS 578T breast): 9.59 µM
TGI (HS 578T breast): 50.4 µM
GI50 (A498 renal): 11.9 µM
TGI (A498 renal): 79.5 µM

O=C1c2ccccc2C(=O)C2NC(CCCCCSSCCCCCC3=NC4C(=O)c5ccccc5C(=O)C4N3)=NC12 (stereo not given)
TGI (NCI/ADR-RES ovarian): > 100 µM
TGI (MCF7 breast): > 100 µM
TGI (SK-MEL-28 melanoma): > 100 µM
TGI (EKVX NSCLC): > 100 µM
TGI (HT29 colon): > 100 µM
TGI (NCI-H23 lung): > 100 µM
TGI (CCRF-CEM leukemia): > 100 µM
TGI (RXF 393 renal): > 100 µM
TGI (MDA-MB-435): > 100 µM
TGI (UACC-257 melanoma): > 100 µM
TGI (ACHN renal): > 100 µM
TGI (SK-OV-3 ovarian): > 100 µM
TGI (NCI-H522 lung): > 100 µM
TGI (OVCAR-3 ovarian): > 100 µM
TGI (TK-10 renal): > 100 µM
TGI (OVCAR-4 ovarian): > 100 µM
TGI (HOP-62 NSCLC): > 100 µM
TGI (CAKI-1 renal): > 100 µM
TGI (SF-295 CNS): > 100 µM
TGI (HL-60(TB) leukemia): > 100 µM
TGI (LOX IMVI melanoma): > 100 µM
TGI (OVCAR-8 ovarian): > 100 µM
TGI (786-0 renal): > 100 µM
TGI (SW-620 colon): > 100 µM
TGI (SF-268 CNS): > 100 µM
TGI (KM12 colon): > 100 µM
TGI (K-562 leukemia): > 100 µM
TGI (DU-145 prostate): > 100 µM
TGI (SR leukemia): > 100 µM
TGI (M14 melanoma): > 100 µM
TGI (T-47D breast): > 100 µM
TGI (NCI-H460 lung): > 100 µM
TGI (U251 CNS): > 100 µM
TGI (SK-MEL-5 melanoma): > 100 µM
TGI (SK-MEL-2 melanoma): > 100 µM
TGI (HCT-15 colon): > 100 µM
TGI (SF-539 CNS): > 100 µM
TGI (HCT-116 colon): > 100 µM
TGI (PC-3 prostate): > 100 µM
TGI (RPMI-8226 leukemia): > 100 µM
TGI (HOP-92 NSCLC): 69.2 µM
TGI (MDA-MB-231 breast): > 100 µM
TGI (OVCAR-5 ovarian): > 100 µM
TGI (IGROV1 ovarian): > 100 µM
TGI (MOLT-4 leukemia): > 100 µM
TGI (NCI-H226 lung): > 100 µM
TGI (UO-31 renal): > 100 µM
TGI (HS 578T breast): > 100 µM
TGI (A498 renal): > 100 µM

Reference: PubChem BioAssay (NCI)
